# Patent US4366148A, “Use of somatostatin in the prevention and cure of vascular, membrane, or organ lesions” (Brigham and Women's Hospital, priority 1981, dated 1982)
# Numbered stars: 1 amine (or outer) side, 2 acyl side, 3 side chain; on linkers, the order of the positions; unused ones are H or OH. Bridge positions count the residues as written; N and C are the ends. Square brackets hold non-standard residues; d marks the D form. Peptide text beside a SMILES is read from it. Trp(2-yl) = O=C([C@H](Cc1c([*:3])[nH]c2ccccc12)N[*:1])[*:2]; Leu(4R-OH,5-OH) = C[C@](O)(CO)C[C@H](N)C(=O)O; cisHyp = O=C(O)[C@@H]1C[C@H](O)CN1
# What was measured:
# rats given phalloidin [1] = test: Toxicity of phalloidin: hemorrhagic liver lesions and mortality after pretreatment; type: in vivo, Sprague-Dawley rat; conditions: for Hepatic lesions (Scale: 0-3) / Mortality (%): pretreatment before phalloidin 0.12 mg/100 g i.p.; for Hepatic lesions (Scale: 0-3): 0=normal, 3=enlargement and uniform hemorrhage of whole liver; for Mortality (%): observed up to 24 hr; for protective effect against phalloidin toxicity (lesions, mortality), in words: rats given phalloidin 0.12 mg/100 g i.p.
# Protocol: In the present studies, Sprague-Dawley rats with an initial body weight of about 200 g had free access to Purina lab chow and tap water. Each control and experimental group consisted of 3-5 animals; every experiment was performed at least twice and the results were pooled.
# Somatostatin (250 μg in 1 ml of protamine sulfate and ZnCl2 suspension) was injected s.c. 30 min before and 30 min after the administration of phalloidin (0.12 mg/100 g i.p.). In addition, 10 min before the toxin, another dose of 250 μg of somatostatin in 1 ml of distilled water was given i.p. Other groups of rats also received the sulfhydryl blocker N-ethylmaleimide (alone or in combination with somatostatin), 2 mg/100 g s.c. 20 min before and 40 min after phalloidin. A --SH free agalogue of somatostatin was used instead of the regular somatostatin in the same dose and at the same time in some experiments. This --SH free analogus was Di-S-tBu-Somatostatin, in which the hydrogens of the --SH groups (cystein) were replaced with t-butyl groups. […] The hemorrhagic liver lesions were evaluated on a scale of 0-3, where 0=normal, 1=multifocal (1-5 mm) hemorrhages, 2=large hemorrhagic areas entirely involving one lobe (usually the left and/or medium), 3=enlargement and uniform hemorrhage involving the whole liver.
# [2] = system: hepatic blood vessels of rats given phalloidin; test: Hepatic uptake of Evans blue after phalloidin (vascular and hepatic membrane lesions); type: in vivo, Sprague-Dawley rat; conditions: for Evans blue (μg/g liver): Evans blue 1 mg/100 g i.v. 15 min before autopsy, somatostatin 250 μg s.c. 30 and 10 min before phalloidin; for hepatic uptake of Evans blue, in words: rats given phalloidin with or without somatostatin
# Protocol: (§1) In the biochemical experiments, the animals were also injected with Evans blue 15 min before autopsy. At autopsy the portal vein was perfused in situ with 20 ml of saline to remove blood from hepatic vasculature. […] In the morphologic experiments, groups of rats were also injected with colloidal carbon (India ink, 0.1 mg/100 g i.v.) 15 min before autopsy. At that time pieces of liver were processed for subsequent light or electron microscopic studies. […] In rats given phalloidin, carbon labeling of sinusoidal macrophages was decreased in the centrilobular areas, while early deposits of carbon were seen along the sinusoidal walls in the periportal regions. […] As opposed to controls, carbon particles were also seen beyond endothelial cells and in Disse space soon after phalloidin injection. Subsequently, vacuolation of hepatocytes and increased amount of extravascular plasma-like material were noticed.
# In all of the experiments, female or male Sprague-Dawley rats (150-200 g) were used. The animals were given free access to Purina lab chow and tap water. Each group consisted of at least 3-4 rats; every experiment was repeated at least twice and the results were pooled.
# Control animals were injected with normal saline 30 min prior to sacrifice and autopsy. Animals treated with phalloidin alone were injected i.p. with 0.12 mg/100 g body weight 15 min, 30 min, or 60 min before sacrifice and autopsy. Animals treated with both phalloidin and somatostatin received phalloidin as above in addition to 250 μg s.c. somatostatin at 30 and 10 minutes before the phalloidin injection. The first somatostatin injection was dissolved in 1 ml of solution consisting of 0.5 ml of 0.1% protamine sulfate and 0.5 ml of ZnCl2, 250-260 μg/ml. The second somatostatin injection was given in normal saline. In addition, rats of all groups were given Evans blue, 1 mg/100 g i.v., 15 min before sacrifice and autopsy. Livers were prefused with 20 ml of saline in situ through the protal vein to remove intravascular dye prior to measuring dye uptake by the liver tissue.
# A one gram sample from the left lobe was measured spectrophotometrically to determine the uptake of Evans blue dye in μg/g liver tissue.
# rats given phalloidin [3] = test: Model study: phalloidin intoxication of rats, mortality, liver weight, histology; type: in vivo, rat; conditions: for liver histology (light microscopy): phalloidin-intoxicated rats, with or without somatostatin
# Protocol: This toxin kills rats within about 4 hours after intraperitoneal injection. Rats injected with phalloidin show a massive increase in liver size accompanied by hemorrhage. In a control group of rats given phalloidin but no somatostatin, 22 or 24 rats died within 2-4 hours. […] In the test group of 26 animals that were treated with both phalloidin and somatostatin, only 8 rats died. Furthermore, only a 30% average increase in liver weight was found in 10 animals treated with somatostatin and phalloidin and sacrificed four hours after intoxication.
# [4] = system: experimentally-induced pancreatitis; conditions: in vivo; cited from earlier work
# [5] = system: liver of rats given phalloidin; test: Morphologic experiments: colloidal carbon (India ink) labeling of liver, light and electron microscopy; type: in vivo, rat
# Protocol: In both cases, rats were given saline (control), phalloidin alone, or phalloidin and somatostatin. Somatostatin was given in subcutaneous injections in a solution of protamine sulfate and zinc chloride in order to prolong its effectiveness, or in normal saline.
# as §1
# adrenal and lung lesions = conditions: in vivo; cited from earlier work
# [6] = system: cysteamine-induced duodenal ulcer; conditions: pretreatment with exogenous somatostatin; cited from earlier work
# [7] = 15 min after phalloidin 0.12 mg/100 g i.p.
# [8] = 30 min after phalloidin 0.12 mg/100 g i.p.
# [9] = 60 min after phalloidin 0.12 mg/100 g i.p.
compound,measurement,setting,value
"CCN1C(=O)C=CC1=O [N--Ethylmaleimide (N--EM), N-ethylmaleimide]",Hepatic lesions (Scale: 0-3),rats given phalloidin [1],2.3 ± 0.2
same,Mortality (%),rats given phalloidin [1],90%
same,"protective effect against phalloidin toxicity (lesions, mortality), in words",rats given phalloidin [1]; listed as N-ethylmaleimide,counteracted the protective action of regular somatostatin
same,"protective effect against phalloidin toxicity (lesions, mortality), in words",rats given phalloidin [1]; listed as N-ethylmaleimide (N-EM),counteracted the beneficial effect of somatostatin
"C[C@@H]1NC(=O)[C@H](C[C@@](C)(O)CO)NC(=O)[C@@H]2Cc3c([nH]c4ccccc34)SC[C@H](NC(=O)[C@@H]([C@H](C)O)NC1=O)C(=O)N1C[C@@H](O)C[C@H]1C(=O)N[C@@H](C)C(=O)N2 [Phalloidin, phalloidin] (cyclo(A[dT]C[cisHyp]A[Trp(2-yl)][Leu(4R-OH,5-OH)]); thioether 3-6)",Evans blue (μg/g liver),[2]; [7],11.21 ± 2.40 μg/g liver
same,Evans blue (μg/g liver),[2]; [8],28.50 ± 4.67 μg/g liver
same,Evans blue (μg/g liver),[2]; [9],51.08 ± 13.56 μg/g liver
same,"hepatic uptake of Evans blue, in words",[2],time dependent increase
same,time within which the toxin kills rats,rats given phalloidin [3]; after intraperitoneal injection,≤ 4 h
same,"average increase in liver weight, phalloidin alone",rats given phalloidin [3]; autopsy of rats that died after phalloidin alone,70%
same,"rats died, phalloidin but no somatostatin",rats given phalloidin [3]; control group of 24 rats given phalloidin alone,22 rats
same,time within which control rats died,"rats given phalloidin [3]; control group, phalloidin but no somatostatin",2 to 4 h
same,liver histology (light microscopy),rats given phalloidin [3],"vacuolization of hepatocytes, congestion, and hemorrhagic necrosis"
Di-S-tBu-Somatostatin [di-S--tBu-Somatostatin],Hepatic lesions (Scale: 0-3),rats given phalloidin [1],2.7 ± 0.2
same,Mortality (%),rats given phalloidin [1],92%
same,"protective effect against phalloidin toxicity (lesions, mortality), in words",rats given phalloidin [1]; listed as somatostatin analogue without thiol groups,inactive
same,"protective effect against phalloidin toxicity (lesions, mortality), in words",rats given phalloidin [1]; listed as sulfhydryl-free derivative of somatostatin,without effect
Somatostatin,Evans blue (μg/g liver),[2]; [7],7.17 ± 0.64 μg/g liver
same,Evans blue (μg/g liver),[2]; [8],16.93 ± 4.76 μg/g liver
same,Evans blue (μg/g liver),[2]; [9],15.50 ± 4.65 μg/g liver
same,"hepatic uptake of Evans blue, in words",[2],virtually abolished this enhanced uptake
same,"hepatic uptake of Evans blue, in words",[2]; listed as somatostatin,prevented or significantly decreased
same,effect on experimentally-induced pancreatitis,[4],beneficial effect
same,"distribution of India ink / carbon labeling of sinusoidal walls, light microscopy","[5]; colloidal carbon 0.1 mg/100 g i.v. 15 min before autopsy, after phalloidin",virtually abolished the carbon labeling of sinusoidal walls
same,"electron microscopic changes (endothelial breakdown, extravascular carbon, vacuolation of hepatocytes)",[5]; livers of rats given somatostatin and phalloidin,markedly diminished or absent
same,"average increase in liver weight, somatostatin and phalloidin",rats given phalloidin [3]; 10 animals sacrificed four hours after intoxication,30%
same,liver histology (light microscopy),rats given phalloidin [3],only mild vacuolization of hepatocytes and slight congestion
same,"rats died, phalloidin and somatostatin",rats given phalloidin [3]; test group of 26 animals treated with both phalloidin and somatostatin,8 rats
same,Hepatic lesions (Scale: 0-3),rats given phalloidin [1],0.7 ± 0.2
same,Mortality (%),rats given phalloidin [1],20%
same,"protective effect against phalloidin toxicity (lesions, mortality), in words",rats given phalloidin [1],significantly diminished
same,effect on adrenal and lung lesions,adrenal and lung lesions,beneficial effect
same,cysteamine-induced duodenal ulcer,[6],prevents
same,gastric acid output,[6],minimal inhibition
